Like-named read-outs stand apart in the source and are kept apart here.
Columns and labels:
Type in all cases: biochemical
[1] = biological target: T1, HDAC3 (Homo sapiens, UniProt O15379); experiment: HDAC enzyme assay, HDAC3 (fluorogenic, 384-well); settings: for IC50: recombinant full-length HDAC3, 3 hours incubation, substrate MAZ1600 at Km
T1 construct: recombinant, full-length HDAC protein (HDAC1 100 pg/ul, HDAC2 200 pg/ul, HDAC3 100 pg/ul); purchased BPS Biosciences, San Diego, Calif., USA
T1 sequence (O15379 whole entry): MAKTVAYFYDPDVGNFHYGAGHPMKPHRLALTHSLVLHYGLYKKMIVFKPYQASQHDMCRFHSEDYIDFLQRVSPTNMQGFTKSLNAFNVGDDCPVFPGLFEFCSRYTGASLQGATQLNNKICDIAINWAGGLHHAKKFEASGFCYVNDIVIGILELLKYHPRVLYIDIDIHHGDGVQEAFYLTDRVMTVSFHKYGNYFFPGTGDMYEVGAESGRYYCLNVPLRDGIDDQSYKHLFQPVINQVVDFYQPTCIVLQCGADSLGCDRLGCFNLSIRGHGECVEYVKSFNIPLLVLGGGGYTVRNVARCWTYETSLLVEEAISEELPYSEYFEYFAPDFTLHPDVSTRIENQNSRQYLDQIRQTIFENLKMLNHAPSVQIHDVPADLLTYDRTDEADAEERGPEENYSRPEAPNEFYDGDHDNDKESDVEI
T1 sequence (Q9Y618 395-489 partner limits assumed): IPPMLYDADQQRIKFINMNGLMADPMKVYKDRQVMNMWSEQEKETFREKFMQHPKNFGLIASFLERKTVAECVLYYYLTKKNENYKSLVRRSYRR
Protocol: (§1) The inhibitory effect of compounds on HDAC1-HDAC9 function was determined in vitro using an optimized homogenous assay performed in a 384-well plate format. […] Reactions were performed in assay buffer (50 mM HEPES, 100 mM KCl, 0.001% (v/v) Tween 20, 0.05% (w/v) bovine serum albumin, 200 μM TCEP, pH 7.4) and followed for fluorogenic release of 7-amino-4-methylcoumarin from substrate upon deacetylase and trypsin enzymatic activity. Trypsin was present at a final concentration of 50 nM (Worthington Biochemical Corporation). Fluorescence measurements were obtained approximately every 5 min using a multilabel plate reader and plate stacker (Envision, Perkin-Elmer). Data were analyzed on a plate-by-plate basis for the linear range of fluorescence overtime. The first derivative of data obtained from the plate capture corresponding to the mid-linear range was imported into analytical software (Spotfire DecisionSite and GraphPad Prism). Replicate experimental data from incubations with inhibitor were normalized to DMSO controls. IC50 is determined by logistic regression with unconstrained maximum and minimum values.

[2] = biological target: T2, HDAC1 (Homo sapiens, UniProt Q13547); experiment: HDAC enzyme assay, HDAC1 (fluorogenic, 384-well); settings: read-out: IC50 HDAC1 (Tables 4-23, isoform selectivity panel)
T2 construct: recombinant, full-length HDAC protein (HDAC1 100 pg/ul); purchased BPS Biosciences, San Diego, Calif., USA
T2 sequence (Q13547 whole entry, canonical isoform): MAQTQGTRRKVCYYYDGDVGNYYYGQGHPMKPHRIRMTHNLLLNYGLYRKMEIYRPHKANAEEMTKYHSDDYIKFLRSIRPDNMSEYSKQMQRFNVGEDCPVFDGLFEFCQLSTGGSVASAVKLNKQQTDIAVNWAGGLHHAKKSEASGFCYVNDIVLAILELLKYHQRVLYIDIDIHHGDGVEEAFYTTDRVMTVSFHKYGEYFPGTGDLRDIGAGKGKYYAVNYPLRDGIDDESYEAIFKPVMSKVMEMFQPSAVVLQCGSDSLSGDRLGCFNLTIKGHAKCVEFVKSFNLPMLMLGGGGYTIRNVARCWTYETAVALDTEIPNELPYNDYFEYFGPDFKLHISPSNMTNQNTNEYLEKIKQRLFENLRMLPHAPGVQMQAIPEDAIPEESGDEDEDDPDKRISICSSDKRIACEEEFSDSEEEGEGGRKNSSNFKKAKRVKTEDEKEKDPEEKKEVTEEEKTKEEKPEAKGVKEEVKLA
Protocol: as §1

[3] = biological target: T3, HDAC2 (Homo sapiens, UniProt Q92769); experiment: HDAC enzyme assay, HDAC2 (fluorogenic, 384-well); settings: read-out: IC50 HDAC2 (Tables 4-23, isoform selectivity panel)
T3 construct: recombinant, full-length HDAC protein (HDAC1 100 pg/ul, HDAC2 200 pg/ul); purchased BPS Biosciences, San Diego, Calif., USA
T3 sequence (Q92769 whole entry, canonical isoform): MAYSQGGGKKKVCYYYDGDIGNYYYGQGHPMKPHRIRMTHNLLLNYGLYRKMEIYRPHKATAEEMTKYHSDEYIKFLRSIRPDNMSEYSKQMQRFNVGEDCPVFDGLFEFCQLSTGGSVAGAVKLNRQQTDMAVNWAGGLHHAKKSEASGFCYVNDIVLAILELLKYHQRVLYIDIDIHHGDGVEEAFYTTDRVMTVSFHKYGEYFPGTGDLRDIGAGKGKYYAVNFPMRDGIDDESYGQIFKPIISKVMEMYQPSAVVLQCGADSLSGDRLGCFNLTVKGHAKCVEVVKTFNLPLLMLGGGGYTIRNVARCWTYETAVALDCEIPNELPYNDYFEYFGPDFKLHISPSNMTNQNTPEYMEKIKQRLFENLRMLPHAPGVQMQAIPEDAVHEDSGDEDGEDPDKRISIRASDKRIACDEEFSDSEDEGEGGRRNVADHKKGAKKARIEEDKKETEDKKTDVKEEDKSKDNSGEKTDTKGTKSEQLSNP
Protocol: as §1

[4] = FIGS. 4A-4D, read-out: IC50 HDAC3 (Tables 4-23, isoform selectivity panel)
[5] = read-out: IC50 against HDAC3 (Table 3, data of FIG. 2)

| SMILES | IC50 [1, 4] | IC50 [1, 5] | IC50 [2] | IC50 [3] | Selectivity for HDAC3 over other HDAC isoforms ([1]; HDAC inhibition assays, FIGS. 1A, 1B, 2, 3) |
| --- | --- | --- | --- | --- | --- |
| Nc1cc(F)ccc1NC(=O)c1ccc(C(=O)Nc2cccc3cnccc23)cc1 (racemic) [DL-HDAC9] | 550 nM | 630 nM | 1550 nM | 930 nM |  |
| Nc1cc(F)ccc1NC(=O)c1ccc(C(=O)Nc2ccc(N3CCOCC3)cc2)cc1 (racemic) [DL-HDAC5] | 280 nM | 260 nM | 810 nM | 440 nM |  |
| Nc1cc(F)ccc1NC(=O)c1ccc(C(=O)Nc2cccc3[nH]ccc23)cc1 (racemic) [DL-HDAC3] | 230 nM | 230 nM | 1050 nM | 490 nM |  |
| Nc1cc(F)ccc1NC(=O)c1ccc(C(=O)Nc2ccccc2)cc1 (racemic) [DL-HDAC12] | 270 nM | 270 nM | 600 nM | 360 nM |  |
| Nc1cc(F)ccc1NC(=O)c1ccc(C(=O)Nc2cccc3sccc23)cc1 (racemic) [DL-HDAC4] | 260 nM | 270 nM |  |  |  |
| CC(NC(=O)c1ccc(C(=O)Nc2ccc(F)cc2N)cc1)c1ccccc1[N+](=O)[O-] (racemic) [DL-HDAC8] | 420 nM | 410 nM | 1650 nM | 660 nM |  |
| Nc1cc(F)ccc1NC(=O)c1ccc(C(=O)NCCCBr)cc1 (racemic) [DL-HDAC15] | 730 nM | 710 nM | 3920 nM | 1800 nM |  |
| Nc1cc(F)ccc1NC(=O)c1ccc(C(=O)Nc2cccc3ncccc23)cc1 (racemic) [DL-HDAC1] | 11100 nM | 10500 nM |  |  |  |
| Nc1cc(F)ccc1NC(=O)c1ccc(C(=O)NCc2ccc(Br)cc2)cc1 (racemic) [DL-HDAC13] | 120 nM | 120 nM | 200 nM | 94 nM |  |
| COc1cc(-c2ccccc2)ccc1NC(=O)c1ccc(C(=O)Nc2ccc(F)cc2N)cc1 (racemic) [DL-HDAC11] | 8810 nM | 7770 nM | 36000 nM | 4690 nM |  |
| Nc1cc(F)ccc1NC(=O)c1ccc(C(=O)Nc2ccc(Cl)c(C(F)(F)F)c2)cc1 (racemic) [DL-HDAC2] | 1330 nM | 1330 nM |  |  |  |
| Cc1cc(NC(=O)c2ccc(C(=O)Nc3ccc(F)cc3N)cc2)n[nH]1 (racemic) [DL-HDAC10] | 450 nM | 450 nM | 2070 nM | 850 nM |  |

Now from value to compound, other results behind:

| IC50 [1, 4] | IC50 [1, 5] | IC50 [2] | IC50 [3] | SMILES | Selectivity for HDAC3 over other HDAC isoforms ([1]; HDAC inhibition assays, FIGS. 1A, 1B, 2, 3) |
| --- | --- | --- | --- | --- | --- |
| 290 nM | 270 nM | 2790 nM | 610 nM | Nc1cc(F)ccc1NC(=O)c1ccc(C(=O)NCCCn2ccnc2)cc1 (racemic) [DL-HDAC19] |  |
| 420 nM | 390 nM | 2620 nM | 990 nM | Nc1cc(F)ccc1NC(=O)c1ccc(C(=O)NCC(F)(F)F)cc1 (racemic) [DL-HDAC16] |  |
| 330 nM | 290 nM | 1730 nM | 590 nM | Nc1cc(F)ccc1NC(=O)c1ccc(C(=O)NCCc2cccnc2)cc1 (racemic) [DL-HDAC20] |  |
|  | 390 nM |  |  | Nc1cc(F)ccc1NC(=O)c1ccc(C(=O)NCc2ccccn2)cc1 [LW3] | selectively inhibits HDAC3 over other HDAC isoforms |
| 560 nM | 530 nM | 3490 nM | 880 nM | Nc1cc(F)ccc1NC(=O)c1ccc(C(=O)NC2CCNCC2)cc1 (racemic) [DL-HDAC18] |  |
| 170 nM | 150 nM | 1220 nM | 220 nM | CC(=O)c1ccc(NC(=O)c2ccc(C(=O)Nc3ccc(F)cc3N)cc2)cc1 (racemic) [DL-HDAC17] |  |

— US20220227700A1, “HDAC3 CATALYTIC INHIBITOR DEVELOPMENT AND USES THEREOF” (DANA-FARBER CANCER INSTITUTE, INC., priority 2019, published 2022)
